Data as given in patent US20260067245A1, “METHODS AND COMPOSITIONS FOR TUMOR THERAPY” (MEMORIAL SLOAN KETTERING CANCER CENTER, priority 2022, published 2026).
“Also recorded” adds a separate entry of the source.

Test system: B16F10 cells
Assay: mouse bilateral tumor model, B16 murine melanoma (one tumor injected, contralateral not injected)
Type: in vivo
Description: By injecting only one of two tumors throughout the course of the experiment it is possible to separate the effect of the injected tumor from the “abscopal” effect on the distant non-injected tumor. Once treatment begins, tumors are measured twice weekly for at least 90 days.
Also, unless indicated otherwise, controls were treated with isotype control antibodies and vehicle only. Furthermore, unless indicated otherwise, all experiments were performed using the mouse bilateral tumor model described below and summarized in FIG. 2.
The animals used had large tumors in two opposite flanks. One tumor was injected while the second remained non-injected (FIG. 2), allowing separate analysis of the effect at the injected tumor from the so-called ‘abscopal’ effect at the non-injected tumor, in order to understand how this treatment could benefit patients with metastatic cancer. […] C57BL/6 mice were initially implanted with 5×10^5 syngeneic B16F10 cells intra-dermally in bilateral flanks. 8 days post tumor cell implantation, when bilateral tumors measured ˜0.5 cm, intratumoral (IT) treatment with various test agents was initiated together with intraperitoneal (IP) anti-PD-1 mAb. Treatment was administered twice weekly for 4 weeks into one of the bilateral tumors. The contralateral tumor remained un-injected for the duration of the experiment.
8 days post tumor cell implantation, when bilateral tumors measured ˜0.5 cm, intratumoral (IT) treatment with agents selected to activate APCs was initiated together with intraperitoneal (IP) anti-PD-1 mAb. Treatment was administered twice weekly for 4 weeks into one of the bilateral tumors. The contralateral tumor remained un-injected for the duration of the experiment (see FIG. 2 for schematic of experimental protocol).
These nanoparticles were administered to animals receiving 250 μg intraperitoneal anti-PD-1 (RMP1-14) concurrently. Non-formulated control animals received mixtures of MPL (5 μg) and FGK45 (20 μg) injected intratumorally with RMP1-14 delivered intraperitoneally. Anti-PD-1-only control animals received 250 μg of intraperitoneal RMP1-14 alone. Isotype/vehicle control animals received isotype control mAbs and vehicle corresponding to the nanoparticle-treated group.

| Compound | survival (concurrent systemic (IP) addition to intratumoral MPL, anti-IL10R and anti-CD40 (41040)) | activity when substituted for MPL in the regimen (FIG. 35B, bilateral tumor model) |
| --- | --- | --- |
| O=C1[O][Pt]2([NH][C@@H]3CCCC[C@H]3[NH]2)[O]C1=O [oxaliplatin] | increases survival | – |
| PolyIC | – | could be substituted for MPL; also recorded: can be substituted for MPL, albeit possibly with slightly reduced activity |
